Assay results taken from patent US11690824B2, “Antibacterial compounds” (THE GENERAL HOSPITAL CORPORATION, priority 2018, dated 2023).

Tested on: MRSA MW2
Assay: Serial passage resistance development
Assay type: cell-based, S. aureus
Conditions: 25 days, sub-MIC concentrations
Procedure: Serial passage resistance development. […] Briefly, an extended range of concentrations of nTZDpa was generated by two-fold serial dilution with cation-adjusted Mueller Hinton (CaMH) broth (Difco, Detroit, USA) from three different starting concentrations (20, 24, and 32 μg/mL) covering 0.1875 to 32.0 μg/mL, which extended over three rows of the 96-well plate. Three sets of the extended gradient of nTZDpa were created in the 96-well plate to provide triplicates of the experiment. […] MRSA MW2 overnight cultures were adjusted to 1×10^6 CFU/mL in CaMH broth, and 50 μL of the diluted cultures were dispensed into the 96-well plates containing 50 μL of the extended gradient of antibiotics. After incubation for 24 h at 35° C., bacterial growth was determined by measuring optical density at 600 nm using a SpectraMax plate reader (Molecular Devices, Sunnyvale, Calif.), and growth was defined as an optical density reading of ≥0.1. Bacterial cells growing at the highest concentration of the antimicrobial (just below the MIC) were diluted 1:1000 in CaMH broth and then used to inoculate the next day's serial-passage plate. The remaining bacterial cells were stored at −80° C. in CaMH broth with 16% glycerol. This process was repeated for 25 days.

## O=C(O)c1c(Sc2ccccc2)c2cc(Cl)ccc2n1Cc1ccc(Cl)cc1 [nTZDpa]
  increase of MIC over wild-type after serial passage: no increase in the nTZDpa MIC was observed
